From patent publication US20110224135A1 (priority 2008, published 2011)

T1: mouse Kv1.7 channel (mouse), Q17ST2
T1 chain: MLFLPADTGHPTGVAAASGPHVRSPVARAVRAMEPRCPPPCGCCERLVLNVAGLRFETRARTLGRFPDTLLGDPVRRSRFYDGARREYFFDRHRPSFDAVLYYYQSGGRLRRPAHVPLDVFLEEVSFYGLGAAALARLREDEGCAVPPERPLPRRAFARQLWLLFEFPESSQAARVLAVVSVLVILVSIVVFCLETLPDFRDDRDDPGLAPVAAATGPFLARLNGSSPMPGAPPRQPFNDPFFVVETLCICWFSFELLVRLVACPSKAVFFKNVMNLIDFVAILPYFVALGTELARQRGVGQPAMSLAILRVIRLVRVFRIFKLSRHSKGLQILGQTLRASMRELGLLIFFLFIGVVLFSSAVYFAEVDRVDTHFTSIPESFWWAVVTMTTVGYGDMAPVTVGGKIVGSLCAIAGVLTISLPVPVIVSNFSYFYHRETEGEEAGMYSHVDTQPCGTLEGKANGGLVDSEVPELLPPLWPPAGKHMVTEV

T2: human Kv1.7 channel (human), Q96RP8
T2 chain: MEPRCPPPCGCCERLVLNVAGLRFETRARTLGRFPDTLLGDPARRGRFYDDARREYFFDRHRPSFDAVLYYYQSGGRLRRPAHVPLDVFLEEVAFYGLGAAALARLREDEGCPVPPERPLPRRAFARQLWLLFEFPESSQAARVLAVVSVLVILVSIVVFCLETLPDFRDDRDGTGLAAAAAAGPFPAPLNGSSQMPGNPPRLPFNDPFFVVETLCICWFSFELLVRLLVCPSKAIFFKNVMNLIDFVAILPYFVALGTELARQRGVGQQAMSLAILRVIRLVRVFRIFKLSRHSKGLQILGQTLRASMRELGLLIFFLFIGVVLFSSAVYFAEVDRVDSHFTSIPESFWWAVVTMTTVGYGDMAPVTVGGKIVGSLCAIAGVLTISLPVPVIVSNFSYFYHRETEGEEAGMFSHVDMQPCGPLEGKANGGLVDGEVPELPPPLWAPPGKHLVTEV

B1: Conkunitzin-S1 (peptide)
chain: KDRPSLCDLPADSGSGTKAEKRIYYNSARKQCLRFDYTGQGGNENNFRRTYDCQRTCLYT
modifications: not checked

Key:
[1] = rat, in vivo
[2] = target: T1, mouse Kv1.7 channel (mouse), Q17ST2; assay: cell-based or functional assay
[3] = target: T2, human Kv1.7 channel (human), Q96RP8; assay: cell-based or functional assay

Molecule | AUC calculated from the glucose profiles [1] | AUC of the insulin profiles [1] | Glucose-induced blood glucose increase [1] | IC50 of block of channel currents (two electrode voltage clamp, Xenopus oocytes) [2] | IC50 of block of channel currents (HEK-293 cells) [3]
COc1ccc(Cl)cc1C(=O)NCCc1ccc(S(=O)(=O)NC(=O)NC2CCCCC2)cc1 [glibenclamide] | 79 ± 7 g·min/L | 310 ± 35 ng·min/mL | reduction of the glucose-induced glucose increase | – | –
B1 | – | – | – | 122 nM | 445 nM
